# Assay results published in patent US6693192B1, “Hypolipidemic and antioxidant morpholine derivatives” (Elpen S.A., priority 1999, dated 2004).
# Marks after values point to notes of the source that are not given here.
# Test system: hyperlipidemia induced by the Triton WR 1339 in rats
# Test: Hypolipidemic activity: inhibition of hyperlipidemia induced by Triton WR 1339 in rats
# Assay type: in vivo, rat
# Settings: male Fischer rats, Triton WR 1339 200 mg/Kg i.p., dose 56 μmol/kg ip, plasma after 24 hours
# Experimental: The hypocholesterolemic and hypolipidemic activity of the synthesised compounds was performed by the inhibition of the hyperlipidemia induced by the Triton WR 1339 in rats. Triton WR 1339 as an intraperitoneal (i.p.) injection acts due to induction of HMG-CoA reductase. […] After 24 hours, blood was taken from the celiac aorta and collected to heparinised tubes.
structure (smiles),measurement,value
CC(C)(Sc1cc(C(C)(C)C)c(O)c(C(C)(C)C)c1)Sc1cc(C(C)(C)C)c(O)c(C(C)(C)C)c1 [Probucol],"Percent decrease compared to controls, LDL (plasma Low Density Lipoprotein)",18^NS %
same,"Percent decrease compared to controls, TC (plasma Total Cholesterol)",18* %
same,"Percent decrease compared to controls, TG (plasma Triglyceride)",11^NS %
